Tests used:
Format in all cases: in vivo
[1] = test system: barnyardgrass (Echinochloa crus-galli); test: Test A preemergence
Description: (§1) Seeds of plant species selected from barnyardgrass (Echinochloa crus-galli), Kochia (Kochia scoparia), ragweed (common ragweed, Ambrosia elatior), ryegrass, Italian (Italian ryegrass, Lolium multiflorum), crabgrass, large (Digitaria sanguinalis), giant foxtail (Setaria faberii), green foxtail (Setaria viridis), morningglory (Ipomoea spp.), pigweed (Amaranthus retroflexus), velvetleaf (Abutilon theophrasti), wheat (Triticum aestivum), and corn (Zea mays) were planted into a blend of loam soil and sand and treated preemergence with a directed soil spray using test chemicals formulated in anon-phytotoxic solvent mixture which included a surfactant.
(§2) At the same time, plants selected from these crop and weed species and also blackgrass (Alopecurus myosuroides), and Galium (catchweed bedstraw, Galium aparine) were planted in pots containing the same blend of loam soil and sand and treated with postemergence applications of test chemicals formulated in the same manner. Plants ranged in height from 2 to 10 cm and were in the one- to two-leaf stage for the postemergence treatment. Treated plants and untreated controls were maintained in a greenhouse for approximately 10 d, after which time all treated plants were compared to untreated controls and visually evaluated for injury. Plant response ratings, summarized in Table A, are based on a 0 to 100 scale where 0 is no effect and 100 is complete control. A dash (-) response means no test result.

[2] = test system: pigweed (Amaranthus retroflexus); test: Test A preemergence
Description: as §1, §2

[3] = test system: ryegrass, Italian (Italian ryegrass, Lolium multiflorum); test: Test A preemergence
Description: as §1, §2

[4] = test system: ragweed (common ragweed, Ambrosia elatior); test: Test A preemergence
Description: as §1, §2

Kochia (Kochia scoparia) [5] = test: Test A preemergence
Description: as §1, §2

[6] = test system: giant foxtail (Setaria faberii); test: Test A preemergence
Description: as §1, §2

[7] = test system: wheat (Triticum aestivum); test: Test A postemergence
Description: as §1, §2

[8] = test system: barnyardgrass (Echinochloa crus-galli); test: Test A postemergence
Description: as §1, §2

[9] = test system: pigweed (Amaranthus retroflexus); test: Test A postemergence
Description: as §1, §2

[10] = test system: ryegrass, Italian (Italian ryegrass, Lolium multiflorum); test: Test A postemergence
Description: as §1, §2

[11] = test system: ragweed (common ragweed, Ambrosia elatior); test: Test A postemergence
Description: as §1, §2

corn (Zea mays) = test: Test A postemergence
Description: as §1, §2

[12] = test system: blackgrass (Alopecurus myosuroides); test: Test A postemergence
Description: as §1, §2

[13] = test system: Galium (catchweed bedstraw, Galium aparine); test: Test A postemergence
Description: as §1, §2

Kochia (Kochia scoparia) [14] = test: Test A postemergence
Description: as §1, §2

[15] = test system: giant foxtail (Setaria faberii); test: Test A postemergence
Description: as §1, §2

[16] = 125 g ai/ha, Preemergence, visual injury after approximately 10 d, 0 to 100 scale where 0 is no effect and 100 is complete control
[17] = Preemergence, 500 g ai/ha, visual injury approx. 10 d
[18] = 125 g ai/ha, postemergence, visual rating after approx. 10 d, 0 to 100 scale (0 no effect, 100 complete control)
[19] = Postemergence, 500 g ai/ha, 0 to 100 scale where 0 is no effect and 100 is complete control

Compound: Cc1cc(F)ccc1NC(=O)C1C(=O)N(C)CC1c1cccc(C(F)(F)F)c1 (stereo not drawn) [Compound 575]
- Plant response rating, Barnyardgrass [1, 16]: 90
- Barnyardgrass plant response rating (0 to 100 scale, 0 is no effect, 100 is complete control) [1, 17]: 100
- Plant response rating, Pigweed [2, 16]: 0
- Pigweed plant response rating (0 to 100 scale, 0 is no effect, 100 is complete control) [2, 17]: 40
- Plant response rating, Ryegrass, Italian [3, 16]: 60
- Ryegrass, Italian plant response rating (0 to 100 scale, 0 is no effect, 100 is complete control) [3, 17]: 80
- Plant response rating, Ragweed [4, 16]: 0
- Ragweed plant response rating (0 to 100 scale, 0 is no effect, 100 is complete control) [4, 17]: 0
- Plant response rating, Kochia (Kochia (Kochia scoparia) [5]; [16]): 0
- Kochia plant response rating (0 to 100 scale, 0 is no effect, 100 is complete control) (Kochia (Kochia scoparia) [5]; [17]): 70
- Plant response rating, Foxtail, Giant [6, 16]: 90
- Foxtail, Giant plant response rating (0 to 100 scale, 0 is no effect, 100 is complete control) [6, 17]: 100
- Plant response rating, Wheat [7, 18]: 40
- Plant response rating, Wheat [7, 19]: 70
- Plant response rating, Barnyardgrass [8, 18]: 90
- Plant response rating, Barnyardgrass [8, 19]: 90
- Plant response rating, Pigweed [9, 18]: 0
- Plant response rating, Pigweed [9, 19]: 20
- Plant response rating, Ryegrass, Italian [10, 18]: 60
- Plant response rating, Ryegrass, Italian [10, 19]: 70
- Plant response rating, Ragweed [11, 18]: 0
- Plant response rating, Ragweed [11, 19]: 0
- Plant response rating, Corn (corn (Zea mays); [18]): 70
- Plant response rating, Corn (corn (Zea mays); [19]): 80
- Plant response rating, Blackgrass [12, 18]: 70
- Plant response rating, Blackgrass [12, 19]: 80
- Plant response rating, Galium [13, 18]: 50
- Plant response rating, Galium [13, 19]: 70
- Plant response rating, Kochia (Kochia (Kochia scoparia) [14]; [18]): 0
- Plant response rating, Kochia (Kochia (Kochia scoparia) [14]; [19]): 20
- Plant response rating, Foxtail, Giant [15, 18]: 90
- Plant response rating, Foxtail, Giant [15, 19]: 90

Compound: O=C1NC[C@H](c2ccc3sccc3c2)[C@H]1C(=O)Nc1cccc(F)c1F [Compound 1128]
- pest or weed control at 500 g/ha ([1]; Echinochloa crus-galli, pre-emergence, 240 h, 500 g ai/ha, preemergence, 0 to 100 scale where 0 is no effect and 100 is complete control, read-out: Barnyardgrass plant response rating): 90%
- pest or weed control at 500 g/ha ([2]; Amaranthus retroflexus, pre-emergence, 240 h, 500 g ai/ha, preemergence, 0 to 100 scale where 0 is no effect and 100 is complete control, read-out: Pigweed plant response rating): 0%
- pest or weed control at 500 g/ha ([3]; Lolium multiflorum, pre-emergence, 240 h, 500 g ai/ha, preemergence, 0 to 100 scale where 0 is no effect and 100 is complete control, read-out: Ryegrass, Italian plant response rating): 40%
- pest or weed control at 500 g/ha ([4]; Ambrosia artemisiifolia, pre-emergence, 240 h, 500 g ai/ha, preemergence, 0 to 100 scale where 0 is no effect and 100 is complete control, read-out: Ragweed plant response rating): 50%
- pest or weed control at 500 g/ha (Kochia (Kochia scoparia) [5]; Bassia scoparia, pre-emergence, 240 h, 500 g ai/ha, preemergence, 0 to 100 scale where 0 is no effect and 100 is complete control, read-out: Kochia plant response rating): 80%
- pest or weed control at 500 g/ha ([6]; Setaria faberi, pre-emergence, 240 h, 500 g ai/ha, preemergence, 0 to 100 scale where 0 is no effect and 100 is complete control, read-out: Foxtail, Giant plant response rating): 90%
- plant injury at 500 g/ha ([7]; Triticum aestivum, post-emergence, 240 h, 500 g ai/ha, postemergence, 0 to 100 scale, 0 is no effect, 100 is complete control, read-out: Wheat plant response rating): 0%
- pest or weed control at 500 g/ha ([8]; Echinochloa crus-galli, post-emergence, 240 h, 500 g ai/ha, postemergence, 0 to 100 scale, 0 is no effect, 100 is complete control, read-out: Barnyardgrass plant response rating): 90%
- pest or weed control at 500 g/ha ([9]; Amaranthus retroflexus, post-emergence, 240 h, 500 g ai/ha, postemergence, 0 to 100 scale, 0 is no effect, 100 is complete control, read-out: Pigweed plant response rating): 0%
- pest or weed control at 500 g/ha ([10]; Lolium multiflorum, post-emergence, 240 h, 500 g ai/ha, postemergence, 0 to 100 scale, 0 is no effect, 100 is complete control, read-out: Ryegrass, Italian plant response rating): 30%
- pest or weed control at 500 g/ha ([11]; Ambrosia artemisiifolia, post-emergence, 240 h, 500 g ai/ha, postemergence, 0 to 100 scale, 0 is no effect, 100 is complete control, read-out: Ragweed plant response rating): 50%
- plant injury at 500 g/ha (corn (Zea mays); Zea mays, post-emergence, 240 h, 500 g ai/ha, postemergence, 0 to 100 scale, 0 is no effect, 100 is complete control, read-out: Corn plant response rating): 50%
- pest or weed control at 500 g/ha ([12]; Alopecurus myosuroides, post-emergence, 240 h, 500 g ai/ha, postemergence, 0 to 100 scale, 0 is no effect, 100 is complete control, read-out: Blackgrass plant response rating): 50%
- pest or weed control at 500 g/ha ([13]; Galium, post-emergence, 240 h, 500 g ai/ha, postemergence, 0 to 100 scale, 0 is no effect, 100 is complete control, read-out: Galium plant response rating): 70%
- pest or weed control at 500 g/ha (Kochia (Kochia scoparia) [14]; Bassia scoparia, post-emergence, 240 h, 500 g ai/ha, postemergence, 0 to 100 scale, 0 is no effect, 100 is complete control, read-out: Kochia plant response rating): 70%
- pest or weed control at 500 g/ha ([15]; Setaria faberi, post-emergence, 240 h, 500 g ai/ha, postemergence, 0 to 100 scale, 0 is no effect, 100 is complete control, read-out: Foxtail, Giant plant response rating): 90%

Source: patent US12077503B2, “Substituted cyclic amides and their use as herbicides” (FMC CORPORATION, priority 2015, dated 2024)
